Reference: patent publication US11673892B2, “Bicyclic compounds for use as RIP1 kinase inhibitors” (Genentech, Inc., priority 2017, dated 2023)

These compounds were tested against T1, human RIP1 kinase domain (2-375) (Homo sapiens, UniProt Q13546) (assay: RIP1 kinase inhibition biochemical assay (Transcreener ADP, fluorescence polarization)). Settings: Ki app (Morrison tight-binding fit); 50 nM enzyme, 50 uM ATP, 2 hours incubation.
T1 construct: Purified human RIP1 kinase domain (2-375) (50 nM); made in house; host or cells: baculovirus-infected insect cells
T1 sequence (Q13546 2-375): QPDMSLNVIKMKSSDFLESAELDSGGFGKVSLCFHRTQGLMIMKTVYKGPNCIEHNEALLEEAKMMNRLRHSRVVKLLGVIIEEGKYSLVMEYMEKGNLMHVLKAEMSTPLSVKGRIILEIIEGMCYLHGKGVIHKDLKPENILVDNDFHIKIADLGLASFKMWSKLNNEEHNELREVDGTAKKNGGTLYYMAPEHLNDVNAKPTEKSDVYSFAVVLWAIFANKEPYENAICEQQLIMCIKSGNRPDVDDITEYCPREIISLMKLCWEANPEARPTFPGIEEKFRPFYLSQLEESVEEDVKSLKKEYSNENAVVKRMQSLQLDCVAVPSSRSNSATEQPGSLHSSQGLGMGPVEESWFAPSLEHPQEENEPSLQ
Procedure: RIP1 Kinase Inhibition Assays (Biochemical Assay)
The compounds of the present invention were tested for their capacity to inhibit RIP1K activity as described below.
The ability of the receptor interacting protein kinase (RIPK1) to catalyze the hydrolysis of adenosine-5′-triphosphate (ATP) is monitored using the Transcreener ADP (adenosine-5′-diphosphate) assay (BellBrook Labs). Purified human RIP1 kinase domain (2-375) (50 nM) derived from a baculovirus-infected insect cell expression system is incubated with test compounds for 2 hours in 50 mM Hepes buffer (pH 7.5) containing 30 mM MgCl2, 1 mM dithiothreitol, 50 uM ATP, 0.002% Brij-35, and 0.5% dimethyl sulfoxide (DMSO). Reactions are quenched by the addition of 1× Bell Brooks Stop buffer B (20 mM Hepes (ph7.5), 40 mM ethylenediaminetetraacetic acid and 0.02% Brij-35) containing an additional 12 mM EDTA and 55 ug/mL ADP2 antibody and 4 nM ADP-AlexaFluor® 633 tracer. The tracer bound to the antibody is displaced by the ADP generated during the RIP1K reaction, which causes a decrease in fluorescence polarization that is measured by laser excitation at 633 nm with a FP microplate reader M1000. Fractional activity was plotted against test article concentration. Using Genedata Screener software (Genedata; Basel, Switzerland), the data were fit to the tight-binding apparent inhibition constant (Ki^app) Morrison equation [Williams, J. W. and Morrison, J. F. (1979) The kinetics of reversible tight-binding inhibition. Methods Enzymol 63: 437-67]. The following equation was used to calculate fractional activity and Ki^app:
[formula] where [E]T and [I]T are the total concentrations of active enzyme and test article, respectively.
Exemplary compounds of the present invention are provided in Table 1 along with their physiochemical characterization and in vitro RIP1 kinase inhibitory activity data. “Method” in the first column of each table refers to the synthetic method(s) used to prepare each compound as shown in the Examples above. In certain examples, chiral column retention times (min) are provided for certain stereoisomers. Unless otherwise specified, the stereochemistry shown in each structure represents relative configuration of a single stereoisomer, and absolute configuration (i.e., “R” and/or “S”) is arbitrarily assigned. In some embodiments, where the Method is described to include the separation of stereoisomers, a single stereoisomer of a compound of Table 1 is provided.
Compound `CCOC(=O)[C@@H]1C[C@H]1c1nc2n(n1)[C@H](c1ccccc1)C[C@@H]2F` (mixture of isomers) [Example 21, ethyl rac-(1R,2R)-2-[(5S,7S)-7-fluoro-5-phenyl-6,7-dihydro-5H-pyrrolo[1,2-b][1,2,4]triazol-2-yl]cyclopropanecarboxylate] has a Ki of 100 nM.
Work on `N#C[C@H]1C[C@@H]1C(F)(F)c1nc2n(n1)[C@H](c1ccccc1)C[C@@H]2F` (mixture of isomers) [Example 113, rac-(1S,2S)-2-[difluoro-[(5S,7S)-7-fluoro-5-phenyl-6,7-dihydro-5H-pyrrolo[1,2-b][1,2,4]triazol-2-yl]methyl]cyclopropane carbonitrile] yielded a Ki of 4.8 nM.
`CCC(F)(F)c1nc2n(n1)C(c1ccccc1)CC2F` (racemic) [Example 2, Cis-2-(1,1-difluoropropyl)-7-fluoro-5-phenyl-6,7-dihydro-5H-pyrrolo[1,2-b][1,2,4]triazole] gave a Ki of 41 nM.
Work on `F[C@@H]1C[C@H](c2ccccc2)n2nc(C(F)(F)C3CC3)nc21` (racemic) [Example 5] yielded a Ki of 27 nM.
Compound `CC[C@@H](F)c1nc2n(n1)[C@H](c1ccccc1)C[C@@H]2F` (racemic) [Example 7, rac-(5S,7S)-7-fluoro-5-phenyl-2-[rac-(1R)-1-fluoropropyl]-6,7-dihydro-5H-pyrrolo[1,2-b][1,2,4]triazole] has a Ki of 4 nM.
Compound `CC[C@H](F)c1nc2n(n1)[C@H](c1ccccc1)C[C@@H]2F` (racemic) [Example 8, rac-(5S,7S)-7-fluoro-5-phenyl-2-[rac-(1S)-1-fluoropropyl]-6,7-dihydro-5H-pyrrolo[1,2-b][1,2,4]triazole] has a Ki of 14 nM.
Work on `CC(C)(C)C(F)(F)c1nc2n(n1)C(c1ccccc1)CC2F` (racemic) [Example 9, Cis-2-(1,1-difluoro-2,2-dimethyl-propyl)-7-fluoro-5-phenyl-6,7-dihydro-5H-pyrrolo[1,2-b][1,2,4]triazole] yielded a Ki of 68 nM.
Work on `CCCc1nc2n(n1)[C@@H](c1ccccc1)C[C@H]2F` (racemic) [Example 10, Cis-(5S,7S)-7-fluoro-5-phenyl-2-propyl-6,7-dihydro-5H-pyrrolo[1,2-b][1,2,4]triazole] yielded a Ki of 78 nM.
Compound `FC1CC(c2ccccc2)n2nc(C3CC3)nc21` (racemic) [Example 11, Cis-2-cyclopropyl-7-fluoro-5-phenyl-6,7-dihydro-5H-pyrrolo[1,2-b][1,2,4]triazole] has a Ki of 320 nM.
`FC1CC(c2ccccc2)n2nc(C(F)(F)F)nc21` (racemic) [Example 12, Cis-7-fluoro-5-phenyl-2-(trifluoromethyl)-6,7-dihydro-5H-pyrrolo[1,2-b][1,2,4]triazole] gave a Ki of 130 nM.
Compound `N#CC1CC1c1nc2n(n1)[C@H](c1ccccc1)C[C@@H]2F` (mixture of isomers) [Example 16, Trans-2-[(5S,7S)-7-fluoro-5-phenyl-6,7-dihydro-5H-pyrrolo[1,2-b][1,2,4]triazol-2-yl]cyclopropanecarbonitrile] has a Ki of 51 nM.
For `F[C@@H]1C[C@H]1C(F)(F)c1nc2n(n1)[C@H](c1ccccc1)C[C@@H]2F` (racemic) [Example 23, (5S,7S)-2-[difluoro-(rac-(1R,2R)-2-fluorocyclopropyl)methyl])-7-fluoro-5-phenyl-6,7-dihydro-5H-pyrrolo[1,2-b][1,2,4]triazole], the Ki was 4 nM.
Compound `COC[C@@H]1C[C@H]1c1nc2n(n1)[C@H](c1ccccc1)C[C@@H]2F` (racemic) [Example 24, (S,7S)-7-fluoro-5-phenyl-2-[rac-(1R,2R)-2-(methoxymethyl)cyclopropyl]-6,7-dihydro-5H-pyrrolo[1,2-b][1,2,4]triazole] has a Ki of 910 nM.
For `N#CCOCc1nc2n(n1)[C@H](c1ccccc1)C[C@@H]2F` (racemic) [Example 51, 2-[(7-fluoro-5-phenyl-6,7-dihydro-5H-pyrrolo[1,2-b][1,2,4]triazol-2-yl)methoxy]acetonitrile], the Ki was 120 nM.
`N#CC1CC(=Cc2nc3n(n2)[C@H](c2ccccc2)C[C@@H]3F)C1` (mixture of isomers) [Example 55, 3-[[rac-(5S,7S)-7-fluoro-5-phenyl-6,7-dihydro-5H-pyrrolo[1,2-b][1,2,4]triazol-2-yl]methylene]cyclobutanecarbonitrile] gave a Ki of 130 nM.
